These results are taken from article PMC3994669 (Cancer cell, 2014).

*1 amine or outer side, *2 acyl side, *3 side chain or, on linkers, in order; H or OH if unused. Where a SMILES comes first, the peptide text is derived from it. Bridges are numbered along the chain shown (N, C = ends). Roman numbers before positions name the chains, in order. [ ]: non-standard residue; d: D form. Actinocin(9to1) = Cc1c2oc3c(C)ccc(C(=O)[*:1])c3nc-2c(C(=O)[*:2])c(N)c1=O; NMeV = CN[C@H](C(=O)O)C(C)C; Sar = CNCC(=O)O

Data set [1] has as its system Myc1 mouse G3 MB neurospheres. The data set is described as follows: Dose-response proliferation assay. Format: cell-based. Particulars: Mus musculus, 72 h, read-out: EC50 Myc1.
The test system of data set [2] is HepG2. The data set is described as follows: Dose-response proliferation assay on HepG2 control cells. Format: cell-based. Conditions: Homo sapiens, HepG2, read-out: EC50 HepG2.
For data set [3], the system named is BJ. The experiment in a line: Dose-response proliferation assay on BJ control fibroblasts. Particulars: Homo sapiens, read-out: EC50 BJ. Format: cell-based.
Data set [4] has as its system Trp53-null neurospheres. The experiment in a line: Dose-response proliferation assay on control Trp53-null neurospheres. Format: cell-based, mouse. Conditions: Mus musculus, 72 h, read-out: EC50 Trp53-null.
The conditions of data set [5]: mouse, in vivo.

Broadly, the EC50 is the concentration that produces a half-maximal response. On to `COc1cc(NS(C)(=O)=O)ccc1Nc1c2ccccc2nc2ccccc12` [Amsacrine], for which the 50% effective concentration (EC50) came to 160 nM in data set [1], 11000 nM in data set [2], 13000 nM in data set [3] and 550 nM in data set [4].
For the compound `N=c1ccn2c(n1)O[C@H]1[C@H](O)[C@@H](CO)O[C@H]12` [Ancitabine], the concentration giving a half-maximal response (EC50) in data set [1] turned out to be 31 nM; in data set [4], 550 nM.
Turning to `CC(C)C[C@H](NC(=O)[C@H](Cc1ccccc1)NC(=O)c1cnccn1)B(O)O` [Bortezomib], the EC50 turned out to be 6.3 nM in data set [1], 26 nM in data set [2], 23 nM in data set [3] and 2.7 nM in data set [4].
As to `COCc1c(C(C)C)nc(C(C)C)c(/C=C/[C@@H](O)C[C@@H](O)CC(=O)O)c1-c1ccc(F)cc1` [Cerivastatin], the EC50 in data set [1] came out at 770 nM; in data set [2] it was 920 nM; in data set [4], 2500 nM.
Consider `Nc1nc(Cl)nc2c1ncn2[C@H]1C[C@H](O)[C@@H](CO)O1` [Cladrabine], for which the concentration for a half-maximal effect (EC50) in data set [1] was found to be 4.3 nM; in data set [2] it was 3300 nM; in data set [3], 1400 nM; in data set [4] it was 250 nM.
Regarding `Nc1nc(Cl)nc2c1ncn2[C@@H]1O[C@H](CO)[C@@H](O)[C@@H]1F` [Clofarabine], the half-maximal effective concentration (EC50) in data set [1] was found to be 150 nM; in data set [4], 340 nM.
For `CC1(C)N=C(N)N=C(N)N1c1ccc(Cl)cc1` [Cycloguanil], in that order: 110 nM and 180 nM.
Consider `Nc1ccn([C@@H]2O[C@H](CO)[C@@H](O)[C@@H]2O)c(=O)n1` [Cytarabine], for which the EC50 is 83 nM in data set [1], 78 nM in data set [2] and 200 nM in data set [4].
With `Cc1c2oc3c(C)ccc(C(=O)N[C@@H]4C(=O)N[C@H](C(C)C)C(=O)N5CCC[C@H]5C(=O)N(C)CC(=O)N(C)[C@@H](C(C)C)C(=O)O[C@@H]4C)c3nc-2c(C(=O)N[C@@H]2C(=O)N[C@H](C(C)C)C(=O)N3CCC[C@H]3C(=O)N(C)CC(=O)N(C)[C@@H](C(C)C)C(=O)O[C@@H]2C)c(N)c1=O` [Dactinomycin] (I: T[dV]P[Sar][NMeV] / II: T[dV]P[Sar][NMeV]; ester I:1-I:C, II:1-II:C; linker I:N-II:N via Actinocin(9to1)), the EC50 in data set [1] was 0.9 nM; in data set [2], 8.4 nM; in data set [4] it was 2.4 nM.
Regarding `COc1cccc2c1C(=O)c1c(O)c3c(c(O)c1C2=O)C[C@@](O)(C(C)=O)C[C@@H]3O[C@H]1C[C@H](N)[C@H](O)[C@H](C)O1` [Daunorubicin], the EC50 in data set [1] is 7.5 nM; in data set [2], 1700 nM; in data set [3], 100 nM; in data set [4], 36 nM.
In the same order, the values of `COc1cccc2c1C(=O)c1c(O)c3c(c(O)c1C2=O)C[C@@](O)(C(=O)CO)C[C@@H]3O[C@H]1C[C@H](N)[C@H](O)[C@H](C)O1` [Doxorubicin] are 28 nM, 580 nM, 140 nM and 110 nM.
Consider `COc1cc([C@@H]2c3cc4c(cc3[C@@H](O[C@@H]3O[C@@H]5CO[C@@H](C)O[C@H]5[C@H](O)[C@H]3O)[C@H]3COC(=O)[C@H]23)OCO4)cc(OC)c1O` [Etoposide], for which the EC50 in data set [1] was 240 nM; in data set [4], 46 nM.
As to `O=c1[nH]c(=O)n([C@H]2C[C@H](O)[C@@H](CO)O2)cc1F` [Floxuridine], the EC50 worked out at 1.6 nM in data set [1] and 0.1 nM in data set [4].
For `O=c1[nH]cc(F)c(=O)[nH]1` [Fluorouracil], in that order: 360 nM and 220 nM.
On to `CC(C)n1c(/C=C/C(O)CC(O)CC(=O)O)c(-c2ccc(F)cc2)c2ccccc21` (stereo not drawn) [Fluvastatin], for which the EC50 in data set [1] amounted to 4500 nM.
Turning to `CC[C@H](C)C(=O)O[C@H]1C[C@@H](C)C=C2C=C[C@H](C)[C@H](CC[C@@H]3C[C@@H](O)CC(=O)O3)[C@H]21` [Lovastatin], the results for the EC50 in data set [1], in data set [2] and in data set [4] were 4000 nM, 13000 nM and 2100 nM, respectively.
For `CN(Cc1cnc2nc(N)nc(N)c2n1)c1ccc(C(=O)N[C@@H](CCC(=O)O)C(=O)O)cc1` [Methotrexate], the EC50 in data set [1] came to 5.2 nM; in data set [4] it was 150 nM.
On to `COC(=O)Nc1nc2ccc(C(=O)c3cccs3)cc2[nH]1` [Nocodazole], for which the EC50 in data set [1] is 110 nM; in data set [2], 15 nM; in data set [4], 94 nM.
In the case of `O=C(O)C[C@H](O)C[C@H](O)/C=C/c1c(C2CC2)nc2ccccc2c1-c1ccc(F)cc1` [Pitavastatin], the EC50 in data set [1] amounted to 3500 nM; in data set [2] it was 5000 nM.
`COc1cc([C@@H]2c3cc4c(cc3[C@H](O)[C@H]3COC(=O)[C@H]23)OCO4)cc(OC)c1OC` [Podofilox]: the 50% effective concentration (EC50) in data set [1] turned out to be 6.4 nM; in data set [2], 3.9 nM; in data set [4], 7.4 nM.
For the compound `CCc1nc(N)nc(N)c1-c1ccc(Cl)cc1` [Pyrimethamine], the concentration giving a half-maximal response (EC50) turned out to be 4900 nM in data set [1] and 870 nM in data set [4].
In the same order, the values of `Cc1nc2ccc(CN(C)c3ccc(C(=O)N[C@@H](CCC(=O)O)C(=O)O)s3)cc2c(=O)[nH]1` [Raltitrexed] are 3 nM and 340 nM.
Consider `CC(C)c1nc(N(C)S(C)(=O)=O)nc(-c2ccc(F)cc2)c1/C=C/[C@@H](O)C[C@@H](O)CC(=O)O` [Rosuvastatin], for which the concentration giving a half-maximal response (EC50) in data set [1] worked out at 2600 nM.
Turning to `CCC(C)(C)C(=O)O[C@H]1C[C@@H](C)C=C2C=C[C@H](C)[C@H](CC[C@@H]3C[C@@H](O)CC(=O)O3)[C@H]21` [Simvastatin], the EC50 was determined as 3000 nM in data set [1], 9400 nM in data set [2] and 5800 nM in data set [3].
As for `Nc1nc2nc[nH]c2c(=S)[nH]1` [Thioguanine], the EC50 was 440 nM in data set [1], 11000 nM in data set [2] and 800 nM in data set [4].
On to `CC[C@@]1(O)C(=O)OCc2c1cc1n(c2=O)Cc2cc3c(CN(C)C)c(O)ccc3nc2-1` [Topotecan], for which the results for the EC50 in data set [1], in data set [2] and in data set [4] were 75 nM, 90 nM and 180 nM, respectively.
On to `O=c1[nH]c(=O)n([C@H]2C[C@H](O)[C@@H](CO)O2)cc1C(F)(F)F` [Trifluridine], for which the EC50 in data set [1] amounted to 38 nM; in data set [4], 2.9 nM.
On to `COc1cc(NCc2ccc3nc(N)nc(N)c3c2C)cc(OC)c1OC` [Trimetrexate], for which the figures for the 50% effective concentration (EC50) in data set [1] and in data set [4] were 35 nM and 4.7 nM, respectively.
With `CC[C@]1(O)C[C@@H]2CN(CCc3c([nH]c4ccccc34)[C@@](C(=O)OC)(c3cc4c(cc3OC)N(C)[C@H]3[C@@](O)(C(=O)OC)[C@H](OC(C)=O)[C@]5(CC)C=CCN6CC[C@]43[C@@H]65)C2)C1` [Vinblastine], the figures for the EC50 in data set [1] and in data set [4] were 12 nM and 15 nM, respectively.
As for `CC[C@]1(O)C[C@H]2CN(CCc3c([nH]c4ccccc34)[C@@](C(=O)OC)(c3cc4c(cc3OC)N(C=O)[C@H]3[C@@](O)(C(=O)OC)[C@H](OC(C)=O)[C@]5(CC)C=CCN6CC[C@]43[C@@H]65)C2)C1` [Vincristine], the values for the EC50 in data set [1] and in data set [4] were 9.4 nM and 10 nM, respectively. Besides, in data set [5], the toxicity in mice entry was “intolerable toxicity”.
